Experimental findings from patent publication US20090253658A1, “Fat Accumulation Inhibitor” (priority 2006, published 2009) are described below.

Test [1] concerns adiponectin concentration in blood. Kind of test: Acceleration of increase and/or inhibition of decrease of adiponectin concentration in blood (high fat feed animal test, ELISA). The format is in vivo. Here is the method:
Using the sphingomyelin obtained in Example 7, an action of acceleration of increase and/or inhibition of decrease of an adiponectin concentration in blood was verified. An animal test was carried out using 8 animals per group by a group in which a high fat feed blended with sphingomyelin was fed (sphingomyelin diet group) and a group in which a high fat feed not blended with sphingomyelin was fed (high fat diet group). The high fat diet was prepared using a milk casein as a protein source and a butter oil as a lipid source. In the animal test, a feed was provided until the 4th week after rearing, and thereafter the group was divided into 5 groups, and the high fat feed or sphingomyelin-blended high fat feed was provided until the 8th week. Blood collection was carried out on the 4th week and on the 8th week, and an adiponectin concentration in blood was measured using a Mouse/Rat Adiponectin ELISA Kit (manufactured by Otsuka Pharmaceutical Co., Ltd.).

The test system of the next test is visceral fat. The test is described as follows: Inhibition of visceral fat accumulation (high fat feed animal test, dissection on 8th week). The format is in vivo. Here is the method:
Using the sphingomyelin obtained in Example 7, an action of inhibition of visceral fat accumulation was verified. An animal test was carried out using 8 animals per group by a group in which a high fat feed blended with sphingomyelin was fed (sphingomyelin diet group) and a group in which a high fat feed not blended with sphingomyelin was fed (high fat diet group). In the animal test, the high fat feed was provided until the 4th week after rearing, and thereafter the group was divided into 5 groups, and the high fat feed or sphingomyelin-blended high fat feed was provided until the 8th week. By carrying out dissection on the 8th week, the amount of visceral fats (mesenteric, peri-testicular, perirenal, posterior abdominal) was measured.

Consider “sphingomyelin [Sphingomyelin (Example 7)]”, for which the “Adiponectin concentration in blood with the lapse of time (in words)” value in test [1] (4th to 8th week, decreases in the high fat diet group) is reported as “increases”. Moreover, the “Adiponectin concentration in blood” value in test [1] (4 weeks (before start of sphingomyelin-blended high fat feed)) is 10.88 µg/mL. Also, the “Adiponectin concentration in blood” value in test [1] (8 weeks (sphingomyelin-blended high fat feed from 4th to 8th week)) amounted to 15.65 µg/mL. Moreover, in the test on visceral fat (dissection on the 8th week), the “Amount of visceral fat, Mesenteric” value amounted to 2.19 g; the “Amount of visceral fat, Perirenal” value was found to be 0.74 g; the “Amount of visceral fat, peri-testicular” value worked out at 3.22 g; the “Amount of visceral fat, posterior abdominal” value amounted to 2.11 g. For the same substance, in the test with visceral fat (in comparison with the high fat diet group), the “Amount of visceral fat (in words)” value was “low values”.
